# PubChem BioAssay (NCI)
# Values joined by “and” are separate entries in the source; they are usually repeats but may differ in a detail not shown here. Identical values can stand only once.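 Five concentrations, 48 hours, 96-well plates. Abbreviation: GI50, concentration required for 50% inhibition of growth. TGI: concentration producing complete growth inhibition.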
# System: MDA-MB-468 breast
# Assay: inhibition of tumour cell growth, NCI panel, 48 h
Compound,GI50,TGI
NC(Cc1ccc(O)cc1)C(=O)N/N=C/c1ccc(N(CCCl)CCCl)cc1 (stereo not drawn),958 nM,10500 nM
O=c1[nH]cc(CO)c(=O)[nH]1,> 100000 nM,> 100000 nM
Cc1cc(N2CCN(C)CC2)nc(N(CCNc2ccnc3cc(Cl)ccc23)Cc2ccco2)n1,2070 nM,6100 nM
Nc1cccc2c1CN(C1CCC(=O)NC1=O)C2=O (stereo not drawn),> 100000 nM,> 100000 nM
Cc1ccc(C2NC(=S)N3C(c4ccc(C)cc4)NC(=S)N23)cc1 (stereo not drawn),4620 nM,18900 nM
CCN1CCN(CC(=O)Nc2nc3ccc(NCc4ccc(C)cc4)cc3s2)CC1,2030 nM,8960 nM
O=C1c2ccccc2C(=O)c2c(NCCNCCO)ccc(NCCNCCO)c21,904 nM and 1300 nM and 1660 nM,2450 nM and 2920 nM and 3840 nM
CCc1ccc(Oc2nccc(-c3c(-c4ccc(F)cc4)ncn3C3CCNCC3)n2)cc1,3710 nM,7590 nM
O=C1NC(=O)C(N2CCc3ccccc32)=C1c1ccc(Cl)cc1,> 25000 nM,> 25000 nM
C/C(=C\CCc1ccsc1)CC/C=C(\C)CCCN1CCN(CCO)CC1,1610 nM,4100 nM
Cc1cc(Br)c2nsnc2c1[N+](=O)[O-],1450 nM,3240 nM
Cc1cc(NS(=O)(=O)c2ccc(NC(=O)COc3ccc(-c4cc5ccccc5[nH]4)cc3)cc2)no1,1610 nM,3520 nM
CC(=O)Nc1c(I)c(C(=O)O)c(I)c(N(C)C(C)=O)c1I,> 100000 nM,> 100000 nM
COC(=O)c1c2c(c(C)[n+]([O-])c1C)C(=O)C=C(NCc1ccc(Br)cc1)C2=O,207 nM,816 nM
O=C(Nc1ccc2cc3ccc(NC(=O)N4CCCCCC4)cc3nc2c1)N1CCCCCC1,1560 nM,3030 nM
C=C1C(=O)O[C@H]2[C@H]1CC/C(COC(=O)c1cccc3ccccc13)=C\CC[C@@]1(C)O[C@@H]21,1350 nM,3130 nM
NS(=O)(=O)c1cccc(-c2cc3ccncc3cc2OCc2ccccc2)c1,4080 nM,16000 nM
CCCCCCCCn1ccc2cc(NC(=O)Cn3cc(CN4CCC(C)CC4)nn3)ccc21,1620 nM,3290 nM
CS(=O)/C(C#N)=C\C=C\c1cccc(Cl)c1 (stereo not drawn),1270 nM,4280 nM
COc1ccc(C2=NNC(c3cc(Cc4ccc(O)c(C5CC(c6ccc(OC)cc6)=NN5)c4)ccc3O)C2)cc1 (stereo not drawn),2970 nM,22900 nM
N#Cc1ccc(N2Cc3cc(Cl)ccc3OC3=C2C(=O)N(Cc2ccc(F)cc2)C3=O)cc1,595 nM,1340 nM
C[C@@H](Oc1cc(-c2cnn(C3CC4(CNC4)C3)c2)cnc1N)c1c(Cl)ccc(F)c1Cl,2460 nM,9350 nM

Compound,GI50,TGI
Cc1ccc(-n2nnc3c(sc4ccccc43)c2=O)cc1,18500 nM,> 100000 nM
COc1ccc(Oc2nc(Nc3ccc(N4CCOCC4)cc3)ncc2NC(=O)Nc2cc(OC)cc(OC)c2)cc1,3390 nM,11700 nM
Nc1ncnc2c1nc(N)n2C1OC(CO)C(O)C1O (stereo not drawn),220 nM,1150 nM
COc1ccccc1N(C(C)=O)C1=C(Cl)C(=O)c2ccccc2C1=O,487 nM,1940 nM
Cc1ccn2c(-c3csc(Nc4cccc(O)c4)n3)c(C)nc2c1,1770 nM,7910 nM
O=C(NC1CCNCC1)c1[nH]ncc1NC(=O)c1c(Cl)cccc1Cl,191 nM and 209 nM,434 nM and 525 nM
CCCCCCCCCCCCNC(=O)[C@H]1CSC(c2cc(Br)cs2)N1 (stereo partly drawn),890 nM,1740 nM
O=C1c2cccc3cccc(c23)C(=O)N1CC#Cc1ccc2c3c(cccc13)C(=O)N(CCN1CCNCC1)C2=O,2190 nM,5300 nM
O=[N+]([O-])c1ccc(N/N=C/c2ccccc2O)nc1,3120 nM,29900 nM
O=C(N/N=C/c1ccncc1)c1ccc(C(F)(F)F)nc1Nc1cccc(C(F)(F)F)c1,1350 nM,4390 nM
COc1cc2nc(Cl)nc(Nc3cccc(C4=Nc5c(N)nc(N)nc5NC(c5ccc(Cl)cc5)C4)c3)c2cc1OC (stereo not drawn),1730 nM,3490 nM
Oc1[nH]c2ccc(Cl)cc2c1/C=c1/ccc2c(c1)N=C(c1ccc(C(F)(F)F)cc1)N=2,1940 nM,4570 nM
CCOC(=O)C1=C(C)NC(C)=C(C(=O)OCC)C1c1cc(Br)c(O)c(OC)c1,2880 nM,14400 nM
CCOC(=O)c1c(C(F)(F)F)n([O-])c2ccc(Cl)cc2[n+]1=O,1790 nM,3920 nM
O=c1c(-c2ccc3c(c2)OCO3)coc2c(CO)c(O)ccc12,1850 nM,5370 nM
Cc1ccc2c(n1)C(=O)C(Cl)=C(Nc1ccc(N3CCN(C)CC3)cc1)C2=O,1510 nM,3130 nM
c1cc2ccc3cc2cc1CNCCOCCNCc1ccc2ccc(cc2c1)CNCCOCCNC3,> 100000 nM,> 100000 nM
Cc1ccc(NC(C(=O)c2ccccc2)c2ccccc2)cc1 (stereo not drawn),2180 nM,8850 nM
O=S1CCN(Cc2ccc(-c3ccc4ncnc(Nc5ccc(OCc6ccccc6)c(F)c5)c4c3)o2)CC1,130 nM,1190 nM
COc1cc(OC)cc(C(=O)Nc2cccc(C#Cc3cccc4[nH]nc(N)c34)c2)c1,558 nM,3920 nM
O=[N+]([O-])c1ccc(Oc2cccc(C(F)(F)F)c2)c([N+](=O)[O-])c1,1640 nM,3100 nM
Cc1ccc(-c2c3c(N)nc(-c4ccncc4)nc3nc3c2c(C)nn3-c2ccccc2)cc1,> 37500 nM,> 37500 nM
